# Laboratory results published in patent US7879863B2, “Aniline derivatives” (Ajinomoto Co., Inc., priority 2004, dated 2011).
# Where a name gives a salt, the structure may show the parent alone. Marks after values point to notes of the source that are not given here.
# System: acetic acid writhing model
# Test: Efficacy evaluation in acetic acid writhing model
# Format: in vivo, male ICR mice
# Settings: 3 mg/kg oral, mice, writhing number 5 to 20 min after 0.9% acetic acid i.p.; mean ± standard error
# Procedure: Efficacy evaluation in acetic acid writhing model
# The acetic acid writhing model was subjected to evaluation according to the method of European Journal of Pharmacology, 352, 47-52 (1998). To be specific, a solution of the test compound adjusted to the objective concentration with a 0.5 (w/v) % tragacanth gum solution was orally administered to male ICR mice (CHARLES RIVER LABORATORIES JAPAN, INC.) at 5 mL/kg, and a 0.9% acetic acid solution adjusted with a physiological saline was intraperitoneally administered 60 min later at 5 mL/kg. The number of writhing for 15 min from 5 min to 20 min after administration of a 0.9% acetic acid solution was counted and taken as the writhing number of the test compound. A mouse, to which a 0.5 (w/v) % tragacanth gum (TG) solution was orally administered at 5 ml/kg instead of the test compound, was used as a control. The suppression rate (%) was calculated by subtracting the relative value of each mouse from the relative value when the average value of the control group is 100%. As a Reference Example, the value obtained by oral administration of a positive control drug, indomethacin, instead of the test compound is shown. […] For testing the significant difference, Dunnett's t-test was used, and statistic significance as shown by P<0.05 and P<0.01 relative to the TG control group is shown in the Table with * and **, respectively.
row,Compound,suppression rate (%)
1,CC(C)[C@H](CNC(=O)Cc1ccccn1)Nc1ccc(C(F)(F)F)cc1 [Compound A-8],33.7 ± 10.1* %

# Same assay, conditions: 10 mg/kg oral, mice, writhing number 5 to 20 min after 0.9% acetic acid i.p.; mean ± standard error
row,Compound,suppression rate (%)
1,CC(C)[C@H](CNC(=O)Cc1ccccn1)Nc1ccc(C(F)(F)F)cc1 [Compound A-8],52.7 ± 7.5** %
2,"COc1ccc2c(c1)c(CC(=O)O)c(C)n2C(=O)c1ccc(Cl)cc1 [Indomethacin, indomethacin, reference compound]",64.1 ± 10.8** %

# Same assay, conditions: 30 mg/kg oral, mice, writhing number 5 to 20 min after 0.9% acetic acid i.p.; mean ± standard error
row,Compound,suppression rate (%)
1,CC(C)[C@H](CNC(=O)Cc1ccccn1)Nc1ccc(C(F)(F)F)cc1 [Compound A-8],63.5 ± 6.6** %

# System: DSS-induced enteritis model
# Test: Efficacy evaluation in DSS-induced enteritis model
# Format: in vivo, female CBA mice
# Settings: 10 mg/kg oral, mice, 5% DSS; relative to non-treatment group = 100%; mean ± standard error
# From the text: Efficacy evaluation in DSS-induced enteritis model
# The dextran sodium sulfate (DSS)-induced enteritis model was subjected to evaluation by a partly-modified methods of Gastroenterology, 98, 694-702 (1990) and Cytokine, 11, 890-896 (1998). A 5 (w/v) % DSS (manufactured by Sigma, MW 5,000) solution was freely taken by female CBA mice (CHARLES RIVER LABORATORIES JAPAN, INC.) for a given period to induce enteritis. A solution of the test compound adjusted to the objective concentration with a 0.5 (w/v) % tragacanth gum (TG) solution was orally administered at 5 mL/kg. Upon autopsy, the length, weight and the like of the large intestine were evaluated and used as an index of the onset of inflammatory enteritis. As a control, a mouse, to which a 0.5 (w/v) % TG solution was orally administered at 5 mL/kg instead of the test compound, was used. The length and weight of the large intestine are expressed as the relative value when the average value of the non-treatment group is 100%. As a Reference Example, the values obtained by oral administration of a positive control drug, salazosulfapyridine, instead of the test compound are shown. […] For testing the significant difference, Dunnett's t-test was used, and statistic significance as shown by P<0.05 and P<0.01 relative to the TG control group is shown in the Table with * and **, respectively.
Compound,large intestine length (%),large intestine weight (%)
CC(C)[C@H](CNC(=O)Cc1ccccn1)Nc1ccc(C(F)(F)F)cc1 [Compound A-8],80.4 ± 1.8** %,130.5 ± 5.28** %

# Same assay, conditions: 200 mg/kg oral, mice, 5% DSS; relative to non-treatment group = 100%; mean ± standard error
Compound,large intestine length (%),large intestine weight (%)
"O=C(O)c1cc(/N=N/c2ccc(S(=O)(=O)Nc3ccccn3)cc2)ccc1O [salazosulfapyridine, reference compound]",78.1 ± 1.5* %,123.0 ± 1.9** %

# Molecular target: T1, human activated tissue kallikrein (Homo sapiens, UniProt P06870)
# T1 construct: 6xHis (C); made in house; host or cells: baculovirus / Sf21 insect cells
# T1 sequence (P06870 25-262): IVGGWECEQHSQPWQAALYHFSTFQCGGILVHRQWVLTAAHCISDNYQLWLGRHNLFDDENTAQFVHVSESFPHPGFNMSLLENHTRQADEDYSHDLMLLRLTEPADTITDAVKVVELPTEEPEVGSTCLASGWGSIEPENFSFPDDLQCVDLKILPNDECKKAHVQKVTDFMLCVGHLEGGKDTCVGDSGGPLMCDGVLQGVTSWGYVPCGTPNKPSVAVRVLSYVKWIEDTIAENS
# Test: Measurement of tissue kallikrein inhibitory activity
# Format: biochemical
# Settings: activated tissue kallikrein activity (initial rate) inhibited by 50%; substrate D-valyl-L-leucyl-L-arginyl-p-nitroanilide; 37° C.
# Procedure: Measurement of tissue kallikrein inhibitory activity
# Expression and purification of human activated tissue kallikrein was performed according to the method of Angermann (A. Angermann et al., Eur. J. Biochem., 206, 225-233 (1992)). That is, a gene was prepared by adding 6 residues of histidine to the C-terminal side of human pancreas kallikrein gene (D. Fukuchima et al, Biochemistry, 24, 8037-8043 (1985)), and tissue prokallikrein was expressed by a system using a baculovirus-insect cell (Sf21). Purified human tissue kallikrein was obtained from the culture supernatant by purification using a nickel chelate column (Ni-NTA, QIAGEN K. K.), digestion with TPCK trypsin and further nickel chelate column. To a solution (100 μL) of the human activated tissue kallikrein adjusted to 0.0625 μg/mL with an assay buffer (100 mM tris-hydrochloride buffer (pH 8.4) containing 0.2M NaCl, 0.02% Tween 20, and 0.1% PEG 6000) was added an assay buffer (containing 2% DMSO) solution (50 μL) of the test compound adjusted to the objective concentration, and the mixture was incubated at 37° C. for 10 minutes (min=minutes). Then, a 4 mM solution (50 μL) of D-valyl-L-leucyl-L-arginyl-p-nitroanilide hydrochloride (BACHEM AG) adjusted with the assay buffer was added, the absorbance was measured and the reaction rate was determined. As a control, a DMSO solution (50 μL) was added instead of the solution of the test compound. Absorbance was measured at a wavelength of 405 nm at 60 second intervals for 90 min using a Benchmark Plus Microplate Reader (BIO RAD). The negative logarithm value (abbreviated as pIC50) of the test compound concentration when the activated tissue kallikrein activity (initial rate) was inhibited by 50% without addition of the test compound was used as an index of the activated tissue kallikrein inhibitory activity.
row,IC50,Compound
1,0.0219 µM,"CC(C)[C@H](CNC(=O)Cc1ccccc1)Nc1ccc(C(F)(F)F)cc1 [Compound A-1, N-((2R)-3-methyl-2-{[4-(trifluoromethyl)phenyl]amino}butyl)-2-phenylacetamide trifluoroacetate]"
2,0.0257 µM,CC(C)[C@H](CNC(=O)CCN)Nc1ccc(C(F)(F)F)cc1 [Compound A-3]
3,0.0295 µM,CC(C)[C@H](CNC(=O)Cc1c[nH]c2ccccc12)Nc1ccc(C(F)(F)F)cc1 [Compound A-4]
4,0.0501 µM,CC(C)[C@H](CNC(=O)CCc1c[nH]c2ccccc12)Nc1ccc(C(F)(F)F)cc1 [Compound A-5]
5,0.0575 µM,CC(C(=O)NC[C@H](Nc1ccc(C(F)(F)F)cc1)C(C)C)c1ccc(-c2ccccc2)c(F)c1 (stereo partly drawn) [Compound A-6]
6,0.0851 µM,CC(C)[C@H](CNC(=O)Cc1cccnc1)Nc1ccc(C(F)(F)F)cc1 [Compound A-7]
7,0.0912 µM,CC(C)[C@H](CNC(=O)Cc1ccccn1)Nc1ccc(C(F)(F)F)cc1 [Compound A-8]
8,0.102 µM,CC(C)[C@H](CNC(=O)[C@H](N)c1ccccc1)Nc1ccc(C(F)(F)F)cc1 [Compound A-9]
9,0.145 µM,CC(C)[C@H](CNC(=O)c1cccc(N(C)C)c1)Nc1ccc(C(F)(F)F)cc1 [Compound A-10]
10,0.158 µM,CC(C)[C@H](CNC(=O)[C@@H](O)c1ccccc1)Nc1ccc(C(F)(F)F)cc1 [Compound A-11]
11,0.162 µM,CC(C)[C@H](CNC(=O)C(=O)c1c[nH]c2ccccc12)Nc1ccc(C(F)(F)F)cc1 [Compound A-12]
12,0.178 µM,CC(C)[C@H](CNC(=O)/C=C/c1ccncc1)Nc1ccc(C(F)(F)F)cc1 [Compound A-13]
13,0.182 µM,CC(C)[C@H](CNC(=O)C1CCN(c2ccncc2)CC1)Nc1ccc(C(F)(F)F)cc1 [Compound A-14]
14,0.182 µM,CC(C)[C@H](CNC(=O)[C@@H](N)C(C)C)Nc1ccc(C(F)(F)F)cc1 [Compound A-15]
15,0.263 µM,CC(C)[C@H](CNC(=O)C1(c2ccccc2)CC1)Nc1ccc(C(F)(F)F)cc1 [Compound A-16]
16,0.295 µM,CC(C)[C@H](CNC(=O)[C@@H](C)N)Nc1ccc(C(F)(F)F)cc1 [Compound A-17]
17,0.309 µM,CC(C)[C@H](CNC(=O)[C@@H](N)CO)Nc1ccc(C(F)(F)F)cc1 [Compound A-18]
18,0.0417 µM,O=C(Cc1ccccc1)NC[C@H]1CCCN1c1ccc(C(F)(F)F)cc1 [Compound A-39]
19,0.245 µM,O=C(Cc1ccccc1)NC[C@@H]1CCCN1c1ccc(C(F)(F)F)cc1 [Compound A-40]
20,0.209 µM,O=C(Cc1c[nH]c2ccccc12)NC[C@H]1CCCN1c1ccc(C(F)(F)F)cc1 [Compound A-41]

row,IC50,Compound
1,0.0468 µM,CC(C)[C@H](CCNC(=O)C1CCN(c2ccncc2)CC1)Nc1ccc(C(F)(F)F)cc1 [Compound A-48]
2,0.0468 µM,CC(C)[C@H](CCNC(=O)c1ccc2ncccc2c1)Nc1ccc(C(F)(F)F)cc1 [Compound A-49]
3,0.107 µM,CC(C)[C@H](CCNC(=O)Cc1cccs1)Nc1ccc(C(F)(F)F)cc1 [Compound A-50]
4,0.129 µM,CC(C)[C@H](CCNC(=O)Cc1c[nH]c2ccccc12)Nc1ccc(C(F)(F)F)cc1 [Compound A-51]
5,0.151 µM,CC(C)[C@H](CCNC(=O)C1CCN(C(C)C)CC1)Nc1ccc(C(F)(F)F)cc1 [Compound A-52]
6,0.02 µM,"CC(C)[C@H](CNC(=O)Cc1ccccc1)Nc1ccc(C(F)(F)F)cc1CO [Compound A-55, N-((2R)-2-{[2-(hydroxymethyl)-4-(trifluoromethyl)phenyl]amino}-3-methylbutyl)-2-phenylacetamide]"
7,0.0501 µM,"CC(C)[C@H](CNC(=O)Cc1ccccc1)Nc1ccc(C(F)(F)F)cc1N [Compound A-56, N-((2R)-2-{[2-amino-4-(trifluoromethyl)phenyl]amino}-3-methylbutyl)-2-phenylacetamide trifluoroacetate]"
8,0.0363 µM,CC(C)[C@H](CNC(=O)[C@@H](N)Cc1c[nH]c2ccccc12)Nc1ccc(C(F)(F)F)cc1N [Compound A-57]
9,0.049 µM,CC(C)[C@H](CNC(=O)Cc1c[nH]c2ccccc12)Nc1ccc(C(F)(F)F)cc1N [Compound A-58]
10,0.0832 µM,CC(C)[C@H](CNC(=O)Cc1ccccn1)Nc1ccc(C(F)(F)F)cc1N [Compound A-59]
11,0.135 µM,CC(C)[C@H](CNC(=O)[C@H](N)Cc1c[nH]c2ccccc12)Nc1ccc(C(F)(F)F)cc1N [Compound A-60]
12,0.204 µM,O=C(N[C@H]1CCN(c2ccc(C(F)(F)F)cc2)C1)C1CCN(c2ccncc2)CC1 [Compound B-2]
13,0.0646 µM,"CC(C)[C@H](CC(=O)NCc1ccccc1)Nc1ccc(C(F)(F)F)cc1 [Compound C-40, (3S)-N-benzyl-4-methyl-3-{[4-(trifluoromethyl)phenyl]amino}pentanamide]"
14,0.302 µM,CC(C)[C@H](CC(=O)NCc1ccccn1)Nc1ccc(C(F)(F)F)cc1 [Compound C-41]
15,0.129 µM,CC(C)[C@H](CC(=O)NCCc1ccccc1)Nc1ccc(C(F)(F)F)cc1 [Compound C-42]
16,0.0912 µM,CC(C)[C@H](CC(=O)NCCc1ccccn1)Nc1ccc(C(F)(F)F)cc1 [Compound C-43]
17,0.112 µM,CCNc1ccc(C(F)(F)F)cc1CO [Compound E-2]
18,0.245 µM,"CCCN1CCC(O)c2cc(C(F)(F)F)ccc21 (stereo not drawn) [Compound E-3, 1-propyl-6-(trifluoromethyl)-1,2,3,4-tetrahydroquinolin-4-ol]"
19,0.257 µM,CCCCN1CCC(O)c2cc(C(F)(F)F)ccc21 (stereo not drawn) [Compound E-4]

row,Compound,IC50
1,"CC(C)[C@H](CCNC(=O)c1ccccc1)Nc1ccc(C(F)(F)F)cc1 [Compound A-47, N-((3S))-4-methyl-3-{[4-(trifluoromethyl)phenyl]amino}pentyl)benzamide trifluoroacetate]",0.209 µM
